# Results reported in patent publication US20250332201A1, “PHARMACEUTICAL COMPOSITION, MEGASPHAERA, AND USE THEREOF” (MOON (GUANGZHOU) BIOTECH CO., LTD., priority 2022, published 2025).
# Tests used:
# strain MNH22004 = test: Antibiotic sensitivity test, disk diffusion method; type: cell-based, Megasphaera sp.
# Description: (§1) Antibiotic sensitivity tests of the strains MNH05026, MNH22004, and MNH27256: Antibiotic sensitivity tests were carried out on the strains MNH05026, MNH22004, and MNH27256 by a disk diffusion method.
# strain MNH05026 = test: Antibiotic sensitivity test, disk diffusion method; type: cell-based, Megasphaera sp.
# Description: as §1
# strain MNH27256 = test: Antibiotic sensitivity test, disk diffusion method; type: cell-based, Megasphaera sp.
# Description: as §1
# [1] = test system: mice with NAFLD/NASH induced by a high-fat, high-carbohydrate, and high-cholesterol diet; test: NAFLD/NASH mouse model (high-fat, high-carbohydrate, high-cholesterol diet), strains combined with Semaglutide (Example 9); type: in vivo, C57BL/6J mice
# Description: 3) Controls: PBS-Cys containing 25% glycerol PBS-Cys was used as a negative control; and Semaglutide was used as a positive control.
# Administration was initiated after the grouping (D1). The negative control group was given the negative control (PBS-Cys) by gavage, 0.2 mL/mouse, twice a day; the positive control group was given Semaglutide by subcutaneous injection, at a dose of 30 nmol/kg, once every 3 days; and the combined treatment group was given Semaglutide (at a dose and frequency of use the same as those in the positive control group) and the corresponding bacterial solution (0.2 mL/mouse, twice a day) by gavage. The experimental period was 60 days. […] During the experiment, one general clinical observation was conducted after the end of each dosing. The animals were weighed twice a week during the dosing, and before dissection at the experimental endpoint. The endpoint of this experiment was the day following the end of dosing (D61). The animals were dissected and sampled according to the protocol at the experimental endpoint, and the data were summarized to analyze the results. […] Statistical analysis was performed using One-Way ANOVA with Dunnett's multiple comparison test.
# Relevant experiments were conducted for the strains MNH05026, MNH22004, and MNH27256 using the methods as described in 1) to 4) above.
Compound,Sensitivity or resistance of strain MNH22004 to the antibiotic (strain MNH22004),Sensitivity or resistance of strain MNH05026 to the antibiotic (strain MNH05026),Sensitivity or resistance of strain MNH27256 to the antibiotic (strain MNH27256),also measured
CO/N=C(\C(=O)N[C@@H]1C(=O)N2C(C(=O)O)=C(CSc3nc(=O)c(=O)[nH]n3C)CS[C@H]12)c1csc(N)n1 [Ceftriaxone],sensitive,sensitive,resistant,–
Semaglutide,–,–,–,"fasting blood glucose ([1]; Day 30 of oral glucose tolerance test): no significant effect; body weight, 1 d ([1]; day 1, in g (unit assumed)): 45.97; body weight, 33 d ([1]; day 33, in g (unit assumed)): 36.18; weight gain value ([1]; day 33 of intervention): −21.30%; body weight, 36 d ([1]; day 36, in g (unit assumed)): 35.94; body weight, 41 d ([1]; day 41, in g (unit assumed)): 35.98; body weight, 44 d ([1]; day 44, in g (unit assumed)): 36.34; body weight, 48 d ([1]; day 48, in g (unit assumed)): 37.02; body weight, 51 d ([1]; day 51, in g (unit assumed)): 37.26; body weight, 54 d ([1]; day 54, in g (unit assumed)): 36.84; body weight, 58 d ([1]; day 58, in g (unit assumed)): 38.09; body weight, 60 d ([1]; day 60, in g (unit assumed)): 36.67"
Penicillin,resistant,sensitive,resistant,Diameter of inhibition zone by MNH22004 (strain MNH22004): 0 mm; Diameter of inhibition zone by MNH27256 (strain MNH27256): 0 mm
O=C(N[C@H](CO)[C@H](O)c1ccc([N+](=O)[O-])cc1)C(Cl)Cl [Chloramphenicol],sensitive,sensitive,sensitive,–
Gentamicin,sensitive,sensitive,sensitive,Diameter of inhibition zone by MNH22004 (strain MNH22004): 9.00 mm
CC1(C)S[C@@H]2[C@H](NC(=O)[C@H](N)c3ccccc3)C(=O)N2[C@H]1C(=O)O [Ampicillin],resistant,sensitive,resistant,–
CCC[C@@H]1C[C@@H](C(=O)N[C@@H]([C@H]2O[C@H](SC)[C@H](O)[C@@H](O)[C@H]2O)[C@@H](C)O)N(C)C1 [Lincomycin],sensitive,sensitive,sensitive,–
Trimethoprim-sulfamethoxazole,sensitive,sensitive,sensitive,–
O=C(O)c1cn(C2CC2)c2cc(N3CCNCC3)c(F)cc2c1=O [Ciprofloxacin],sensitive,sensitive,sensitive,–
CC[C@H]1OC(=O)[C@H](C)[C@@H](O[C@H]2C[C@@](C)(OC)[C@@H](O)[C@H](C)O2)[C@H](C)[C@@H](O[C@@H]2O[C@H](C)C[C@H](N(C)C)[C@H]2O)[C@](C)(O)C[C@@H](C)C(=O)[C@H](C)[C@@H](O)[C@]1(C)O [Erythromycin],sensitive,sensitive,sensitive,–
